Test results taken from US20210393785A1, “Nucleic acid nanocarrier drug and preparation method thereof” (BAI YAO ZHI DA (BEIJING) NANOBIO TECHNOLOGY CO., LTD., priority 2018, published 2021).
Several values for one entry are separate records, joined by “and”; a condition that tells them apart may be missing. Identical values can stand only once.

Assays:
[1] = tested on: LN-229 cells; test: Cytotoxicity in LN-229 cells; format: cell-based; settings: 96 hours
Description: 2) adjusting the cell density to 2.22×10^4/mL with a growth medium;
6) taking out the cell culture plate, and adding 10 μL/well of 10× concentration drug working solution to the corresponding wells of the cell culture plate, herein three replicate holes are made for each concentration, and the final drug action concentration is shown in Table 46 below;
8) placing the CellTiter 96® AQueous One Solution reagent at the room temperature and thawing for 90 minutes or thawing in a water bath at 37 DEG C., and then equilibrating at the room temperature for 30 minutes;
9) adding 50 μL/well of the CellTiter 96® AQueous One Solution reagent to the cell culture plate; […]
11) using the microplate reader to read a OD490 value of each well in the cell plate; and […]

[2] = tested on: Hela cells; test: Cytotoxicity in Hela cells (CellTiter 96 AQueous One, OD490); format: cell-based; settings: Homo sapiens, 72 hours
Description: (§1) 1) Harvesting cells in a logarithmic growth phase, taking a small amount and staining with trypan blue for counting to ensure that the cell viability reaches more than 98%;
3) planting 90 μL/well of cell suspension into the 96-well plate, herein the number of cells per well in the plate is 5000;
(§2) 4) placing the planted cell plate in the incubator at 37 DEG C. and incubating overnight;
(§3) 5) performing 3.16-fold gradient dilution on the compound at 9 concentration points;
6) taking out the cell culture plate, and adding 10 μL/well of 10× concentration drug working solution to the corresponding wells of the cell culture plate, herein three replicate holes are made for each concentration, and the final drug action concentration is shown in Table 66 below;
7) placing the cell culture plate in the incubator and continuously incubating for 72 hours;
8) placing the CellTiter 96® AQueous One Solution reagent at the room temperature and thawing for 90 minutes or thawing in a water bath at 37 DEG C., placing at the room temperature and equilibrating for 30 minutes; […]
(§4) 11) using a microplate reader to read a OD490 value of each well in the cell plate; and […]
(§5) GraphPad Prism 5.0 software is used to process data graphically. […] A calculation formula of the survival rate is as follows, the IC50 may be automatically calculated in GraphPad Prism 5.0. […]

[3] = tested on: HepG2 cells; test: Cytotoxicity in HepG-2 cells (CellTiter-Glo); format: cell-based, human; settings: 96 hours
Description: 1) Harvesting cells in a logarithmic growth phase, taking a small amount and staining with trypan blue for counting to ensure that the cell viability reaches more than 80%;
(§6) 3) planting 90 μL/well of cell suspension into the 96-well plate, herein the number of cells per well in the plate is 2000;
4) placing the planted cell plate in the incubator at 37 DEG C. and incubating overnight under conditions of 5% CO2 and 95% humidity;
as §3
6) taking out the cell culture plate, and adding 10 μL/well of 10× concentration drug working solution to the corresponding wells of the cell culture plate, herein three replicate holes are made for each concentration, and the final drug action concentration is shown in Table 56 below;
(§7) 7) placing the cell culture plate in the incubator and continuously incubating for 96 hours;
8) placing the CellTiter-Glo reagent and the drug treatment cell culture plate at the room temperature and equilibrating for 30 minutes;
9) adding 50 μL of the CellTiter-Glo reagent to each well;
10) shaking in the orbital shaker for 2 minutes so that the cells are adequately lysed;
11) placing the cell culture plate at the room temperature and equilibrating for 10 minutes, reading a chemiluminescence value by using EnVision; and
12) data processing and analysis.
GraphPad Prism 5.0 software is used to process data graphically. Nonlinear S-curve regression is used to fit the data to obtain a dosage-effect curve, and an IC50 value is calculated from this.
Cell survival rate (%)=(Lumdrug to be tested−Lummedium control)/(Lumcell control−Lummedium control)×100%.
Lumcell control-Lummedium control is set to 100%, and a LumMedium control value is set to 0%.

[4] = tested on: HepG2 cells; test: CCK8 toxicity of DNA nanoparticles and carrier drugs to HepG2; format: cell-based; settings: Homo sapiens, 72 hours
Description: A CCK8 method is used to detect the toxicity of DNA nanoparticles and carrier drugs to HepG2.
1. HepG2 cells in a logarithmic growth phase are taken, trypan blue is used for staining and the cell viability is counted to be 98.3%, plating is performed with 5000 Cell/well, a volume is 100 μL/well, 8 96-well plates are paved with 57 wells per plate, and it is incubated overnight at 37 DEG C.
2. A sample to be tested is diluted according to the following table and added: the original culture medium is removed and 100 μL of a culture medium of the sample to be tested with the different concentration is added, and there are 3 replicate wells in each group.
In the present embodiment, the loaded drug and the blank carrier are firstly prepared into 100 μM of stock solution by using the PBS, and then diluted with the complete culture medium (biotin-free DMEM). The original drug doxorubicin is firstly prepared into 100 μM of stock solution by the DMSO, and then diluted with the complete culture medium (biotin-free DMEM). The DMSO is directly diluted with the complete medium (biotin-free DMEM).
3. […]
6. A microplate reader is used to measure an absorbance at 450 nm.
7. Calculation: cell viability (%)=(OD experimental group-OD blank group)×100%/(OD control group-OD blank group), IC50 is calculated by Graph Pad Prism 5.0.

[5] = tested on: SGC-7901 cells; test: Cytotoxicity in SGC-7901 cells (CellTiter 96 AQueous One, OD490); format: cell-based, human; settings: 96 hours
Description: as §1, §6, §2, §3
6) taking out the cell culture plate, and adding 10 μL/well of 10× concentration drug working solution to the corresponding wells of the cell culture plate, herein three replicate holes are made for each concentration, and the final drug action concentration is shown in Table 76 below;
as §7
8) placing the CellTiter 96® AQueous One Solution reagent at the room temperature and thawing for 90 minutes or thawing in a water bath at 37 DEG C., and placing at the room temperature and equilibrating for 30 minutes; […]
as §4, §5

[6] = Particle size measurement (DLS hydrodynamic size); format: physicochemical
Excerpt: 1. Preparing a potential sample (conventional-sequence DNA self-assembly product D-7) and putting into a sample pool, opening a sample pool cover of an instrument, and placing the instrument; […]
4. clicking Ok to complete the settings, while a measurement dialog box appears, clicking Start to start, a DLS measurement value result of a hydrodynamic size of the self-assembly product D-7 is as follows: […]

Molecule: C[C@H]1[C@@H](O)O[C@@H]2O[C@@]3(C)CC[C@H]4[C@H](C)CC[C@@H]1[C@@]24OO3 [DHA (dihydroartemisinin), Dihydroartemisinin]
- IC50 ([1]; Homo sapiens): 20.2 µM

Molecule: O=c1cc(-c2ccccc2)oc2ccccc12 [Flavone]
- IC50 [2]: 12.6 µM

Molecule: CC[C@]1(O)C[C@H]2CN(CCc3c([nH]c4ccccc34)[C@@](C(=O)OC)(c3cc4c(cc3OC)N(C=O)[C@H]3[C@@](O)(C(=O)OC)[C@H](OC(C)=O)[C@]5(CC)C=CCN6CC[C@]43[C@@H]65)C2)C1 [Vincristine]
- IC50 ([3]; Homo sapiens): 1.68 µM
- inhibition at 100 µM ([3]; Homo sapiens, highest concentration of each sample (Table 56: 100 μM, DNAh-Bio-Cy5 4.9 μM), read-out: Inhibition rate of cell proliferation at highest concentration itself): 70.7%

Molecule: COc1cccc2c1C(=O)c1c(O)c3c(c(O)c1C2=O)C[C@@](O)(C(=O)CO)C[C@@H]3O[C@H]1C[C@H](N)[C@H](O)[C@H](C)O1 [doxorubicin]
- IC50 [4]: 0.273 µM

Molecule: N.N.[Cl][Pt][Cl] [Cisplatin]
- IC50 [1]: 12.5 µM
- IC50 [3]: 3.99 µM
- Inhibition rate of cell proliferation at highest concentration itself ([3]; highest concentration of each sample (Table 56: 100 μM, DNAh-Bio-Cy5 4.9 μM)): 99.36%

Molecule: O=C1[O][Pt]2([NH][C@@H]3CCCC[C@H]3[NH]2)[O]C1=O [Oxaliplatin]
- IC50 [5]: 55.8 µM

B1: D-7: conventional-sequence DNA nanoparticles, SEQ ID NO:117-119, no target head, thio modification (nucleic acid)
chain 1: CGCGCGCCCACGAGCGTTGCGGGCGCCGC
chain 2: GCGGCGCCCGCTTCGGCGGCAGGCGGC
chain 3: GCCGCCAGCCGCCCATAGCCGTGGGCGCGCG
modifications: DNA, backbone not given here; phosphorothioate (thio) modified DNA nanoparticle, further chemistry not fully specified
- Particle size Z-Ave, Experiment result ([6]; result over the 3 detections): 12.33 d · nm (±1.57 d · nm)
- Particle size Z-Ave ([6]; single detections 1-3, DLS hydrodynamic size): 10.76 nm·days and 13.9 nm·days and 10.36 nm·days
